Laboratory results from patent US20220348876A1, “METABOLISM GUIDES DEFINITIVE LINEAGE SPECIFICATION DURING ENDOTHELIAL TO HEMATOPOIETIC TRANSITION” (Amniotics AB, priority 2019, published 2022).

Tests used:
NSG mice = NSG mice transplantation of DCA-treated HE cells; format: in vivo; conditions: week 8; text does not separate DCA from control
Method: Sorted human HE cells (350,000) were mixed with OP9-DL1 stroma (60,000) and subcultured for 3 days with or without DCA (3 mM) on Matrigel (16 μg/cm^2, Corning)-coated 12-well plates in HE medium^30. Between 100,000-150,000 cells from control or DCA samples were transplanted into sub-lethally irradiated (300 cGy) 8-week-old female NOD/Cg-Prkdc^scid Il2rg^tm1Wjl/SzJ mice (NSG, The Jackson Laboratory) together with 20,000 whole bone marrow support cells from C57Bl/6.SJL mice (CD45.1+/CD45.2+, in house breeding). Cells were transplanted in single cell solution in 250 μL PBS with 2% FBS through intravenous tail vein injection. Drinking water of transplanted NSG mice was supplemented with ciprofloxacin (125 mg/L, HEXAL) for 3 weeks after transplantation to prevent infection. Mice were housed in a controlled environment with 12-hour light-dark cycles with chow and water provided ad libitum. Experiments and animal care were performed in accordance with the Lund University Animal Ethical Committee.
Peripheral blood (PB) was collected from the tail vein into EDTA-coated microvette tubes (Sarstedt, Cat #20.1341.100). […]
Bone marrow was analyzed at the 12-week transplantation endpoint. […]

HE cells [1] = test: confocal imaging: filipin III and histone acetylation staining; format: cell-based, human; conditions: day 2, DCA-treated HE cells
Method: For TMRE staining, on day 3 of subculture, half of the culture medium was removed and cells were stained with 20 nM TMRE (Thermo Fisher Scientific, T669) by direct addition into the culture medium of a 2× concentrated solution. After a 20-minute incubation at 37° C., wells were carefully washed with PBS and fresh HE medium was added. During acquisition, cells were kept in a humidified incubator at 37° C., 5% CO2, 20% O2. For immunocytochemistry, subculture day 2 HE cells (plated on coverslips) were washed twice in PBS, fixed with 4% PFA for 15 minutes at RT and washed three times with PBS. For filipin staining, fixed cells were incubated with 100 μg/ml filipin III (Sigma-Aldrich, F4767) for 1 hour, washed three times with PBS and rinsed with distilled water before mounting with PVA/DABCO. […] Intensity quantification was performed using the Fiji software as follows. For TMRE, using the brightfield channel, ROIs were selected for 5 spindle-shaped and 5 round cells (randomly chosen) and average intensity for each ROI was calculated in a summatory Z-stack of the TMRE channel. For filipin and acetylation, the summatory Z-stack for the filipin channel was obtained and average intensity calculated. A total of 2-3 independent experiments with 2-3 replicate wells were quantified. […]

HE cells [2] = test: Lymphoid differentiation assay on OP9-DL1 stroma; format: cell-based, human; conditions: 3-day subculture with UK5099 10 μM or DCA 3 mM, then 35-day co-culture, vs untreated
Method: Subculture day 3 HE cells cultured in the presence of UK5099 (10 μM), DCA (3 mM), or in glutamine-free medium with DMK (1.75 mM), nucleosides (1×) or NEAAs (1×), as indicated, were collected after a 2-minute incubation at 37° C. with StemPro Accutase Cell Dissociation Reagent and seeded onto 80% confluent OP9-DL1 stroma. Cells were cultured in OP9 medium with SCF (10 ng/ml), FLT3-L (10 ng/ml), IL-2 (5 ng/ml), IL-7 (5 ng/ml, first 15 days only) and IL-15 (10 ng/ml) with passaging onto new OP9-DL1 stroma every week, as described previously (Renoux, V. M. et al. Immunity 43, 394-407 (2015)). At day 35 of co-culture, cells were analyzed on a BD LSRFortessa.

SMILES | engraftment: human CD45+ cells in the peripheral blood (NSG mice) | increase in cholesterol content (HE cells [1]) [%] | NK cell differentiation (CD45+CD56+) (HE cells [2])
O=C(O)C(Cl)Cl [DCA, dichloroacetate] | around 1% | 8 | 
N#C/C(=C\c1cn(-c2ccccc2)c2ccccc12)C(=O)O [UK5099] |  |  | impaired NK cell formation
